The target in this assay is T1, human MC1R (hMC1R) (Homo sapiens, UniProt Q01726).
T1 construct: purchased Perkin Elmer ES-195-M400UA
T1 sequence (Q01726 whole entry): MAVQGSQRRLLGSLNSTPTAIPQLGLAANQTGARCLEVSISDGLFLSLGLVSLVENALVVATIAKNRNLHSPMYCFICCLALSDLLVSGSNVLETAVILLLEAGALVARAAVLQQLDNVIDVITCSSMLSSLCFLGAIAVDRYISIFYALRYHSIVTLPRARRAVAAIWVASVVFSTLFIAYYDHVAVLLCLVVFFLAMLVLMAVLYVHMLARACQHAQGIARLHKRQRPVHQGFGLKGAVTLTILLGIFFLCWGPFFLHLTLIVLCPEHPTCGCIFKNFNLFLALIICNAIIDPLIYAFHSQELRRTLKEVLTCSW
Description: Human MC1R radioligand binding assay (displacement of 125I-labeled NDP-MSH, Perkin Elmer hMC1R membranes). To be noted: displacement of [125I]NDP-MSH, compounds tested as trifluoroacetate or hydrochloride salts or free base. The procedure: Assessments of compound binding to human MC1R (hMC1R)) by displacement of an ^125I-labeled NDP-MSH receptor ligand peptide were performed essentially as described in the data sheets produced by Perkin Elmer to accompany their frozen hMC1R membranes (Perkin Elmer catalog number ES-195-M400UA).
[^125I] NDP-MSH: radiolabeled in house and purified by HPLC:
Na ^125I (0.5 mCi, 17.4 Ci/mg) was added to 50 μL sodium phosphate (50 mM, pH 7.4) in an eppendorf tube precoated with IODOGEN. After incubation for 10 mins the phosphate buffer containing the iodine was added to NDP-MSH (10 ul at 1 mg/mL) in a separate eppendorf tube. This was incubated for a further 10 mins. The iodinated NDP-MSH was purified by HPLC on a Zorbax SB 300 column using solvent A: 0.05% TFA and solvent B: 90% acetonitrile 0.045% TFA with a linear gradient, 0-67% B over 60 mins.
Perkin Elmer frozen hMC1 membranes: catalog number ES-195-M400UA, 0.4 mL/vial; 400 microassays/vial, 0.78 mg/mL protein concentration
Vials of frozen membranes were thawed rapidly immediately before use, diluted with binding buffer and vortexed. Resuspended membranes were kept on ice until they were added to the wells of the plate.
Assays were performed in 96 well polypropylene plates. […] This was incubated for 1 hr at 37° C.
On the technique in general: In a radioligand displacement assay an active substance lowers the binding of a labelled ligand.
Take `NC[C@@H]1N[C@H](CNC(=O)/C=C/c2ccc(Cl)cc2)CCN(CC(c2ccccc2)c2ccccc2)C1=O` [Compound 133, (E)-N-(((3S,5S)-3-(aminomethyl)-1-(2,2-diphenylethyl)-2-oxo-1,4-diazepan-5-yl)methyl)-3-(4-chlorophenyl)acrylamide]: the IC50 (commonly the concentration needed to halve the response being measured) was < 10 µM.
As to `O=C(/C=C/c1ccc(Cl)cc1)NC[C@@H]1CCN(CC(c2ccccc2)c2ccccc2)C(=O)[C@H](CN2CCCCC2)N1` [Compound 134, (E)-3-(4-chlorophenyl)-N-(((3S,5S)-1-(2,2-diphenylethyl)-2-oxo-3-(piperidin-1-ylmethyl)-1,4-diazepan-5-yl)methyl)acrylamide], the IC50 is < 10 µM.
`NCC[C@@H]1N[C@H](CNC(=O)c2ccc(Cl)c(Cl)c2)CCN(CC(c2ccccc2)c2ccccc2)C1=O` [Compound 135, N-(((3S,5S)-3-(2-aminoethyl)-1-(2,2-diphenylethyl)-2-oxo-1,4-diazepan-5-yl)methyl)-3,4-dichlorobenzamide]: the IC50 was < 10 µM.
Regarding `O=C(NC[C@@H]1CCN(CC(c2ccccc2)c2ccccc2)C(=O)[C@H](CCN2CCCCC2)N1)c1ccc(Cl)c(Cl)c1` [Compound 137, 3,4-dichloro-N-(((3S,5S)-1-(2,2-diphenylethyl)-2-oxo-3-(2-(piperidin-1-yl)ethyl)-1,4-diazepan-5-yl)methyl)benzamide], the IC50 is < 10 µM.
As to `N=C(N)NCCC[C@@H]1N[C@H](CNC(=O)c2ccc3ccccc3c2)CCN(CC(Oc2ccccc2)c2ccccc2)C1=O` (stereo partly drawn) [Compound 138, N-(((3S,5S)-3-(3-guanidinopropyl)-2-oxo-1-(2-phenoxy-2-phenylethyl)-1,4-diazepan-5-yl)methyl)-2-naphthamide], the half-maximal inhibitory concentration (IC50) is < 10 µM.
For the compound `CC1CC(C)CC(CN2CC[C@@H](CNC(=O)c3ccc4ccccc4c3)N[C@@H](CCCNC(=N)N)C2=O)C1` (stereo partly drawn) [Compound 139, N-(((3S,5S)-1-((3,5-dimethylcyclohexyl)methyl)-3-(3-guanidinopropyl)-2-oxo-1,4-diazepan-5-yl)methyl)-2-naphthamide], the IC50 was < 10 µM.
With `NCC[C@@H]1N[C@H](CNC(=O)c2ccc(Cl)c(Cl)c2)CCN(Cc2cc(Cl)cc(Cl)c2)C1=O` [Compound 140, N-(((3S,5S)-3-(2-aminoethyl)-1-(3,5-dichlorobenzyl)-2-oxo-1,4-diazepan-5-yl)methyl)-3,4-dichlorobenzamide], the IC50 is < 10 µM.
Turning to `NCC[C@@H]1N[C@H](CNC(=O)/C=C/c2ccc(Cl)cc2)CCN(Cc2cc(Cl)cc(Cl)c2)C1=O` [Compound 141, (E)-N-(((3S,5S)-3-(2-aminoethyl)-1-(3,5-dichlorobenzyl)-2-oxo-1,4-diazepan-5-yl)methyl)-3-(4-chlorophenyl)acrylamide], the 50% inhibitory concentration (IC50) was < 10 µM.
As for `CNC(=O)[C@H](Cc1ccc2ccccc2c1)N1CC[C@H]2CN(Cc3ccc(F)cc3)C(=O)N2[C@@H](CCCNC(=N)N)C1=O` [Compound 142, (S)-2-((5S,9aS)-2-(4-fluorobenzyl)-5-(3-guanidinopropyl)-3,6-dioxotetrahydro-1H-imidazo[1,5-d][1,4]diazepin-7(8H,9H,9aH)-yl)-N-methyl-3-(naphthalen-2-yl)propanamide], the half-maximal inhibitory concentration (IC50) was < 10 µM.
For `CNC(=O)[C@H](Cc1ccc2ccccc2c1)N1CC[C@H](CNCc2ccc(F)cc2)N[C@@H](CCCNC(=N)N)C1=O` [Compound 143, (S)-2-((3S,5R)-5-((4-fluorobenzylamino)methyl)-3-(3-guanidinopropyl)-2-oxo-1,4-diazepan-1-yl)-N-methyl-3-(naphthalen-2-yl)propanamide] the value was < 10 µM; for `NCCC[C@@H]1N[C@H](CNC(=O)c2ccc3ccccc3c2)CCN(CC2(c3ccccc3)CCCCC2)C1=O` [Compound 144, N-(((3S,5S)-3-(3-aminopropyl)-2-oxo-1-((1-phenylcyclohexyl)methyl)-1,4-diazepan-5-yl)methyl)-2-naphthamide], < 10 µM.
In the case of `O=C(/C=C/c1ccc(Cl)cc1)NC[C@@H]1CCN(Cc2cc(Cl)cc(Cl)c2)C(=O)[C@H](CCN2CCCCC2)N1` [Compound 145, (E)-3-(4-chlorophenyl)-N-(((3S,5S)-1-(3,5-dichlorobenzyl)-2-oxo-3-(2-(piperidin-1-yl)ethyl)-1,4-diazepan-5-yl)methyl)acrylamide], the IC50 was < 10 µM.
For `CCC(CC)CN1CC[C@@H](CNC(=O)/C=C/c2ccc(Cl)cc2)N[C@@H](CCN)C1=O` [Compound 146, (E)-N-(((3S,5S)-3-(2-aminoethyl)-1-(2-ethylbutyl)-2-oxo-1,4-diazepan-5-yl)methyl)-3-(4-chlorophenyl)acrylamide] the value was < 10 µM; for `N=C(N)NCCC[C@@H]1N[C@H](CNC(=O)c2ccc3ccccc3c2)CCN(CC(C(=O)Nc2ccccc2)c2ccccc2)C1=O` (stereo partly drawn) [Compound 147, N-(((3S,5S)-3-(3-guanidinopropyl)-2-oxo-1-(3-oxo-2-phenyl-3-(phenylamino)propyl)-1,4-diazepan-5-yl)methyl)-2-naphthamide], < 10 µM; for `NC[C@@H]1N[C@H](CNC(=O)c2ccc(Cl)c(Cl)c2)CCN(Cc2cc(Cl)cc(Cl)c2)C1=O` [Compound 148, N-(((3S,5S)-3-(aminomethyl)-1-(3,5-dichlorobenzyl)-2-oxo-1,4-diazepan-5-yl)methyl)-3,4-dichlorobenzamide], < 10 µM.
Consider `NC[C@@H]1N[C@H](CNC(=O)c2ccc3ccccc3c2)CCN(Cc2cc(Cl)cc(Cl)c2)C1=O` [Compound 149, N-(((3S,5S)-3-(aminomethyl)-1-(3,5-dichlorobenzyl)-2-oxo-1,4-diazepan-5-yl)methyl)-2-naphthamide], for which the IC50 was < 10 µM.
`O=C(NC[C@@H]1CCN(Cc2cc(Cl)cc(Cl)c2)C(=O)[C@H](CN2CCCCC2)N1)c1ccc(Cl)c(Cl)c1` [Compound 151, 3,4-dichloro-N-(((3S,5S)-1-(3,5-dichlorobenzyl)-2-oxo-3-(piperidin-1-ylmethyl)-1,4-diazepan-5-yl)methyl)benzamide]: the IC50 was < 10 µM.
Take `O=C(/C=C/c1ccc(Cl)cc1)NC[C@@H]1CCN(Cc2cc(Cl)cc(Cl)c2)C(=O)[C@H](CN2CCCCC2)N1` [Compound 152, (E)-3-(4-chlorophenyl)-N-(((3S,5S)-1-(3,5-dichlorobenzyl)-2-oxo-3-(piperidin-1-ylmethyl)-1,4-diazepan-5-yl)methyl)acrylamide]: the IC50 is < 10 µM.
On to `CCC(CN1CC[C@@H](CNC(=O)/C=C/c2ccc(Cl)cc2)N[C@@H](CCN)C1=O)c1ccccc1` (stereo partly drawn) [Compound 153, (E)-N-(((3S,5S)-3-(2-aminoethyl)-2-oxo-1-(2-phenylbutyl)-1,4-diazepan-5-yl)methyl)-3-(4-chlorophenyl)acrylamide], for which the IC50 is < 10 µM.
For `O=C(NC[C@@H]1CCN(CC(c2ccccc2)c2ccccc2)C(=O)[C@H](CCN2CCCCC2)N1)c1ccc2cc(Cl)ccc2c1` [Compound 154, 6-chloro-N-(((3S,5S)-1-(2,2-diphenylethyl)-2-oxo-3-(2-(piperidin-1-yl)ethyl)-1,4-diazepan-5-yl)methyl)-2-naphthamide] the value was < 10 µM.
For `CC(C)c1ccc(/C=C/C(=O)NC[C@@H]2CCN(CC(c3ccccc3)c3ccccc3)C(=O)[C@H](CCN3CCCCC3)N2)cc1` [Compound 155, (E)-N-(((3S,5S)-1-(2,2-diphenylethyl)-2-oxo-3-(2-(piperidin-1-yl)ethyl)-1,4-diazepan-5-yl)methyl)-3-(4-isopropylphenyl)acrylamide], the IC50 is < 10 µM.
As to `CC(C)c1ccc(/C=C/C(=O)NC[C@@H]2CCN(CC(c3ccccc3)c3ccccc3)C(=O)[C@H](CCN)N2)cc1` [Compound 156, (E)-N-(((3S,5S)-3-(2-aminoethyl)-1-(2,2-diphenylethyl)-2-oxo-1,4-diazepan-5-yl)methyl)-3-(4-isopropylphenyl)acrylamide], the IC50 was < 10 µM.
On to `Cc1ccc(/C=C/C(=O)NC[C@@H]2CCN(CC(c3ccccc3)c3ccccc3)C(=O)[C@H](CCN)N2)c(C)c1` [Compound 157, (E)-N-(((3S,5S)-3-(2-aminoethyl)-1-(2,2-diphenylethyl)-2-oxo-1,4-diazepan-5-yl)methyl)-3-(2,4-dimethylphenyl)acrylamide], for which the IC50 was < 10 µM.
In the case of `O=C(/C=C/c1ccc(F)cc1F)NC[C@@H]1CCN(CC(c2ccccc2)c2ccccc2)C(=O)[C@H](CCN2CCCCC2)N1` [Compound 158, (E)-3-(2,4-difluorophenyl)-N-(((3S,5S)-1-(2,2-diphenylethyl)-2-oxo-3-(2-(piperidin-1-yl)ethyl)-1,4-diazepan-5-yl)methyl)acrylamide], the IC50 was < 10 µM.
Turning to `O=C(/C=C/c1ccc(Cl)cc1)NC[C@@H]1CCN(CC(c2ccccc2)c2ccccc2)C(=O)[C@H](CCN2CCOCC2)N1` [Compound 159, (E)-3-(4-chlorophenyl)-N-(((3S,5S)-1-(2,2-diphenylethyl)-3-(2-morpholinoethyl)-2-oxo-1,4-diazepan-5-yl)methyl)acrylamide], the IC50 was < 10 µM.
For the compound `CC1CCC(C)N1CC[C@@H]1N[C@H](CNC(=O)/C=C/c2ccc(Cl)cc2)CCN(CC(c2ccccc2)c2ccccc2)C1=O` (stereo partly drawn) [Compound 160, (E)-3-(4-chlorophenyl)-N-(((3S,5S)-3-(2-(2,5-dimethylpyrrolidin-1-yl)ethyl)-1-(2,2-diphenylethyl)-2-oxo-1,4-diazepan-5-yl)methyl)acrylamide], the IC50 was < 10 µM.
